{"source": "patent US8557737B2", "about": "“Methods of altering poppy characteristics” (priority 2005, dated 2013)", "format_in_all_cases": "in vivo, Papaver somniferum", "key": {"poppy crops [1]": {"tested_on": "poppy crops", "test": "Example 16: field trial, metsulfuron-methyl, mesosulfuron-methyl and triasulfuron at row cover and ground cover/early run-up, morphine crop", "conditions": "Trt 5: COMPOUND 2 150 MG/HA + ACTIVATOR .125% V/V at RC and GC/ERU", "experimental": "(§1) All trials were conducted on poppy crops. Seed was treated with Thiram (5.6 g of Thiram 800/kg seed) and Apron (4 g/kg) and sown at a rate of approximately 750 g/ha. Fertilisers were applied at sowing. Most commonly, either 50:50 lime:superphosphate/triple superphosphate at 125 kg/ha, or lime:superphosphate at 250 kg/ha, were mixed with seed and drilled at a depth of 15 mm. In the same operation, NPK (nitrogen:phosphorus:potassium), at various rates, was banded 75 mm below the seed, unless otherwise stated. All crops were subjected to herbicide sprays for weed control, fungicide sprays for disease control, insecticide sprays if appropriate and were irrigated as required.\n(§2) All spray applications were made with a precision sprayer, using Silvan Lurmark flat-fan, low-drift nozzles (LD110-0015). Spray equipment was calibrated to deliver 153 L water/ha.\n(§3) At harvest, a 2 m×4 m quadrat was placed in each plot (3 m×6 m, unless otherwise stated) and capsules hand-picked from this area. Capsules were broken up, seed and capsule material separated and weighed. Capsule moisture readings were taken with a moisture meter. Alkaloid yield data were calculated on Pesticide Research Manager (version 5 for Windows) using the formulae below. Briefly, capsule weight was adjusted for moisture to a dry weight, 5% of seed weight was added to this (this amount of capsule material regularly occurs in seed samples after processing) to give a capsule weight per plot. Seed weight was adjusted to 95% of crude weight. Straw weights were determined by multiplying dry capsule weight by 1.3 (estimated amount of stem material in a commercial harvest) and adjusted to 11% moisture. When Lontrel was applied to crops exact capsule and seed weight data were entered. Analyses of variance and a Multiple Range Test were performed on data using Pesticide Research Manager.\nTrial to evaluate applications of metsulfuron-methyl (Compound 1), mesosulfuron-methyl (Compound 2) and triasulfuron (Compound 3), in a morphine crop. Treatment sprays were applied to crop at row cover and ground cover/early run-up, respectively. Plant heights were assessed 5 weeks after last application and lodging was assessed at capsule harvest."}, "poppy crops [2]": {"tested_on": "poppy crops", "test": "Example 18: field trial, triasulfuron, mesosulfuron-methyl and metsulfuron-methyl at row cover, mid run-up and early hook, morphine crop", "conditions": "Trt 5: COMPOUND 2 150 MG/HA + ACTIVATOR .125% V/V at RC, MRU and LRU", "experimental": "as §1, §2, §3\nTrial to evaluate applications of triasulfuron, mesosulfuron-methyl and metsulfuron-methyl, in a morphine crop. […] Plant heights were measured 5 weeks after last application and lodging at capsule harvest."}, "poppy crops [3]": {"tested_on": "poppy crops", "test": "Example 9: field trial, mesosulfuron-methyl and metsulfuron-methyl, morphine crop", "conditions": "for LODGING: assessed on the day of capsule harvest; for HEIGHT: measured at green capsule stage", "experimental": "as §1, §2, §3\nTrial to evaluate applications of mesosulfuron-methyl (Compound 2) and metsulfuron-methyl (Compound 1), in a morphine crop. Treatment sprays were applied to crop at ground cover, late run-up and early bud-emergence, respectively. Plant heights were measured at green capsule stage, and lodging assessed on the day of capsule harvest."}, "poppy crops [4]": {"tested_on": "poppy crops", "test": "Example 17: field trial, triasulfuron, mesosulfuron-methyl and metsulfuron-methyl at early run-up and mid-late run-up, morphine crop", "conditions": "Trt 5: COMPOUND 2 150 MG/HA + ACTIVATOR .125% V/V at ERU and M-LRU", "experimental": "as §1, §2, §3\nTrial to evaluate applications of triasulfuron, mesosulfuron-methyl and metsulfuron-methyl, in a morphine crop. Treatment sprays were applied to with crop at early run-up and mid-late run-up, respectively. Plant heights were measured on 6 weeks after last application and lodging was assessed at capsule harvest."}, "[5]": {"conditions": "COMPOUND 2 390 MG/HA + ACTIVATOR .125 % V/V at GC and EBE"}, "[6]": {"conditions": "COMPOUND 2 390 MG/HA + ACTIVATOR .125 % V/V at GC, LRU and EBE"}}}
{"smiles": "COC(=O)c1ccc(CNS(C)(=O)=O)cc1S(=O)(=O)NC(=O)Nc1nc(OC)cc(OC)n1", "note": "[Compound 2, mesosulfuron-methyl]", "values": [{"measurement": "CAPS/SEED RATIO", "setting": "poppy crops [1]", "value": 0.825, "unit": "c"}, {"measurement": "CROP WEIGHT", "setting": "poppy crops [1]", "value": 3.65, "unit": "ab t/ha"}, {"measurement": "MORPHINE", "setting": "poppy crops [1]", "value": 43.77, "unit": "ab kg/ha"}, {"measurement": "SEED", "setting": "poppy crops [1]", "value": 1671, "unit": "b kg/ha"}, {"measurement": "STRAW", "setting": "poppy crops [1]", "value": 1976, "unit": "ab kg/ha"}, {"measurement": "STRAW MORPHINE", "setting": "poppy crops [1]", "value": 2.21, "unit": "a %"}, {"measurement": "PLANT HEIGHT", "setting": "poppy crops [1]; 5 weeks after last application", "value": 101.6, "unit": "b cm"}, {"measurement": "CAPS/SEED RATIO", "setting": "poppy crops [2]", "value": 1.071, "unit": "b"}, {"measurement": "CROP WEIGHT", "setting": "poppy crops [2]", "value": 3.25, "unit": "a t/ha"}, {"measurement": "MORPHINE", "setting": "poppy crops [2]", "value": 42.83, "unit": "b kg/ha"}, {"measurement": "SEED", "setting": "poppy crops [2]", "value": 1281, "unit": "b kg/ha"}, {"measurement": "STRAW", "setting": "poppy crops [2]", "value": 1917, "unit": "b kg/ha"}, {"measurement": "STRAW MORPHINE", "setting": "poppy crops [2]", "value": 2.23, "unit": "b %"}, {"measurement": "PLANT HEIGHT", "setting": "poppy crops [2]; 5 weeks after last application", "value": 96.4, "unit": "b cm"}, {"measurement": "LODGING", "setting": "poppy crops [2]; at capsule harvest", "value": 2.8, "unit": "a %"}, {"measurement": "CAPSULE/SEED RATIO", "setting": "poppy crops [3]; [5]", "value": 2.084, "unit": "b"}, {"measurement": "CROP WEIGHT", "setting": "poppy crops [3]; [5]", "value": 1.80, "unit": "c t/ha"}, {"measurement": "MORPHINE", "setting": "poppy crops [3]; [5]", "value": 26.41, "unit": "b kg/ha"}, {"measurement": "SEED", "setting": "poppy crops [3]; [5]", "value": 460, "unit": "b kg/ha"}, {"measurement": "STRAW", "setting": "poppy crops [3]; [5]", "value": 1342, "unit": "c kg/ha"}, {"measurement": "STRAW MORPHINE", "setting": "poppy crops [3]; [5]", "value": 2.10, "unit": "a %"}, {"measurement": "LODGING", "setting": "poppy crops [3]; [5]", "value": 6.5, "unit": "bc %"}, {"measurement": "HEIGHT", "setting": "poppy crops [3]; [5]", "value": 96.0, "unit": "ab cm"}, {"measurement": "CAPSULE/SEED RATIO", "setting": "poppy crops [3]; [6]", "value": 1.854, "unit": "b"}, {"measurement": "CROP WEIGHT", "setting": "poppy crops [3]; [6]", "value": 1.16, "unit": "d t/ha"}, {"measurement": "MORPHINE", "setting": "poppy crops [3]; [6]", "value": 15.27, "unit": "c kg/ha"}, {"measurement": "SEED", "setting": "poppy crops [3]; [6]", "value": 336, "unit": "b kg/ha"}, {"measurement": "STRAW", "setting": "poppy crops [3]; [6]", "value": 827, "unit": "d kg/ha"}, {"measurement": "STRAW MORPHINE", "setting": "poppy crops [3]; [6]", "value": 2.03, "unit": "a %"}, {"measurement": "LODGING", "setting": "poppy crops [3]; [6]", "value": 11.0, "unit": "ab %"}, {"measurement": "HEIGHT", "setting": "poppy crops [3]; [6]", "value": 89.3, "unit": "b cm"}, {"measurement": "CAPS/SEED RATIO", "setting": "poppy crops [4]", "value": 2.315, "unit": "days"}, {"measurement": "CROP WEIGHT", "setting": "poppy crops [4]", "value": 2.57, "unit": "b t/ha"}, {"measurement": "MORPHINE", "setting": "poppy crops [4]", "value": 41.97, "unit": "b kg/ha"}, {"measurement": "SEED", "setting": "poppy crops [4]", "value": 612, "unit": "b kg/ha"}, {"measurement": "STRAW", "setting": "poppy crops [4]", "value": 1910, "unit": "b kg/ha"}, {"measurement": "STRAW MORPHINE", "setting": "poppy crops [4]", "value": 2.23, "unit": "b %"}, {"measurement": "PLANT HEIGHT", "setting": "poppy crops [4]; 6 weeks after last application", "value": 104.0, "unit": "b cm"}, {"measurement": "LODGING", "setting": "poppy crops [4]; at capsule harvest", "value": 2.8, "unit": "b %"}]}
